Experimental data as given in ChEMBL document CHEMBL5346958 (J Med Chem, 2023).
Substitutions are numbered along the chain they refer to.

Key:
Homo sapiens = species: Homo sapiens; assay: Selectivity ratio of IC50 for AKR1C2 (unknown origin) to IC50 for AKR1C3 (unknown origin)
[1] = target: T1, Aldo-keto reductase family 1 member C1 (Homo sapiens, UniProt Q04828); assay: Inhibition of recombinant AKR1C1 (unknown origin) dehydrogenase activity by measuring NADH formation by spectrophotometry
T1 sequence (Q04828 whole entry): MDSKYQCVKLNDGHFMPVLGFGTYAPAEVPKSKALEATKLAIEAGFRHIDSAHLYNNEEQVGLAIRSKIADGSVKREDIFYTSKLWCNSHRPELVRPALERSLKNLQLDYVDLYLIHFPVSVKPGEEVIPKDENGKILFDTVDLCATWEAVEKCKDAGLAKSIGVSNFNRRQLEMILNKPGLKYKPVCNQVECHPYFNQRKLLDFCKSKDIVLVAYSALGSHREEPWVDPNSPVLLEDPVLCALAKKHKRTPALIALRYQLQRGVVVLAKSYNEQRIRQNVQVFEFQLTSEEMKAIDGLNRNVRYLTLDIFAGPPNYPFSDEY

[2] = target: T2, Aldo-keto reductase family 1 member C2 (Homo sapiens, UniProt P52895); assay: Inhibition of recombinant AKR1C2 (unknown origin) dehydrogenase activity by measuring NADH formation by spectrophotometry
T2 sequence (P52895 whole entry): T1 sequence (Q04828 whole entry) with T38V, R47H, L54V, C87S, V151M, R170H, Q172L

[3] = target: T3, Aldo-keto reductase family 1 member C3 (Homo sapiens, UniProt P42330); assay: Inhibition of recombinant AKR1C3 (unknown origin) dehydrogenase activity by measuring NADH formation by spectrophotometry
T3 sequence (P42330 whole entry): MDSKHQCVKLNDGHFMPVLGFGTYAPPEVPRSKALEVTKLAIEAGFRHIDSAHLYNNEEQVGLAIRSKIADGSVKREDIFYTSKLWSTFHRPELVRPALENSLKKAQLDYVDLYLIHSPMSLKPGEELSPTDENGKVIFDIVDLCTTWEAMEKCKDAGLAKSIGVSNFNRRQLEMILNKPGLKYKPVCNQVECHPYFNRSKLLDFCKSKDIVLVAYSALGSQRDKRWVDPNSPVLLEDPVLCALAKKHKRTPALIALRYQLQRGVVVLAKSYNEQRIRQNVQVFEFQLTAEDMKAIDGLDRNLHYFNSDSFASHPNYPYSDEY

[4] = target: T4, Aldo-keto reductase family 1 member C1 (Homo sapiens) (UniProt Q04828); assay: Inhibition of recombinant AKR1C1 (unknown origin) dehydrogenase activity at 100 uM by measuring NADH formation by spectrophotometry relative to control
T4 sequence (whole entry): T1 sequence (Q04828 whole entry)

[5] = Stability of compound in SGF assessed as compound remaining after 1 hrs; type: ADME; conditions: simulated gi fluid
[6] = Extrapolated AUC in BALB/c mouse at 10 mg/kg, po measured upto 24 hrs; type: ADME, organism-based; conditions: in vivo
[7] = Half life in BALB/c mouse at 10 mg/kg, po measured upto 24 hrs; type: ADME, organism-based; conditions: in vivo
[8] = AUC (0 to t) in BALB/c mouse at 10 mg/kg, po measured upto 24 hrs; type: ADME, organism-based; design: time < 24 hrs, dose 10 mg/kg, route po; conditions: in vivo
[9] = AUC (0 to infinity) in BALB/c mouse at 10 mg/kg, po measured upto 24 hrs; type: ADME, organism-based; design: time < 24 hrs, dose 10 mg/kg, route po; conditions: in vivo
[10] = Apparent volume of distribution during terminal phase in BALB/c mouse at 10 mg/kg, po measured upto 24 hrs; type: ADME, organism-based; conditions: in vivo
[11] = Tmax in BALB/c mouse at 10 mg/kg, po measured upto 24 hrs; type: ADME, organism-based; conditions: in vivo
[12] = Stability of compound in SIF assessed as compound remaining after 2 hrs; type: ADME; conditions: simulated gi fluid
[13] = Apparent oral clearance in BALB/c mouse at 10 mg/kg, po measured upto 24 hrs; type: ADME, organism-based; conditions: in vivo
[14] = Cmax in BALB/c mouse at 10 mg/kg, po measured upto 24 hrs; type: ADME, organism-based; design: dose 10 mg/kg, time < 24 hrs, route po; conditions: in vivo
[15] = target: T3, Aldo-keto reductase family 1 member C3; assay: Inhibition of AKR1C3 (unknown origin)
[16] = Prodrug conversion in human liver microsomes assessed as formation of (E)-3-(3-(11,2,4)triazolo(1,5-alpyridin-6-y1)-5-((4-methylbenzy1)-carbamoyl)phenyl)acrylic acid over 60 mins; type: ADME, Microsome; conditions: 1 h
[17] = AUC (0 to t) in BALB/c mouse assessed as (E)-3-(3-(11,2,4)triazolo(1,5-alpyridin-6-y1)-5-((4-methylbenzy1)-carbamoyl)phenyl)acrylic acid at 10 mg/kg, po measured upto 24 hrs; type: ADME, organism-based; design: dose 10 mg/kg, time < 24 hrs, route po; conditions: in vivo
[18] = Metabolic stability in human liver microsomes assessed as compound degradation by LC-MS/MS analysis; type: ADME, Microsome; conditions: read-out: Drug degradation
[19] = Metabolic stability in mouse plasma assessed as formation of (E)-3-(3-(11,2,4)triazolo(1,5-alpyridin-6-y1)-5-((4-methylbenzy1)-carbamoyl)phenyl)acrylic acid; type: ADME, cell-free
[20] = AUC (0 to infinity) in BALB/c mouse assessed as (E)-3-(3-(11,2,4)triazolo(1,5-alpyridin-6-y1)-5-((4-methylbenzy1)-carbamoyl)phenyl)acrylic acid at 10 mg/kg, po measured upto 24 hrs; type: ADME, organism-based; design: time < 24 hrs, dose 10 mg/kg, route po; conditions: in vivo
[21] = Stability on mouse plasma assessed as compound remaining measured at 30 mins; type: ADME, cell-free; conditions: 0.5 h
[22] = Metabolic stability in mouse liver microsomes assessed as compound degradation by LC-MS/MS analysis; type: ADME, Microsome; conditions: read-out: Drug degradation
[23] = Tmax in BALB/c mouse assessed as (E)-3-(3-(11,2,4)triazolo(1,5-alpyridin-6-y1)-5-((4-methylbenzy1)-carbamoyl)phenyl)acrylic acid at 10 mg/kg, po measured upto 24 hrs; type: ADME, organism-based; conditions: in vivo
CWR22R [24] = assay: Antitumor activity against human 22Rv1 cells xenografted in NSG mouse tumor model assessed as reduction in tumor volume at 50 mg/kg, ip treated for 26 days relative to control; type: functional; conditions: 22Rv1, 624 h, time 26 day
[25] = Prodrug conversion in mouse liver microsomes assessed as formation of (E)-3-(3-(11,2,4)triazolo(1,5-alpyridin-6-y1)-5-((4-methylbenzy1)-carbamoyl)phenyl)acrylic acid over 60 mins; type: ADME, Microsome; conditions: 1 h
[26] = Cmax in BALB/c mouse assessed as (E)-3-(3-(11,2,4)triazolo(1,5-alpyridin-6-y1)-5-((4-methylbenzy1)-carbamoyl)phenyl)acrylic acid at 10 mg/kg, po measured upto 24 hrs; type: ADME, organism-based; design: dose 10 mg/kg, time < 24 hrs, route po; conditions: in vivo
[27] = Half life in BALB/c mouse assessed as (E)-3-(3-(11,2,4)triazolo(1,5-alpyridin-6-y1)-5-((4-methylbenzy1)-carbamoyl)phenyl)acrylic acid at 10 mg/kg, po measured upto 24 hrs; type: ADME, organism-based; conditions: in vivo
CWR22R [28] = assay: Antitumor activity against human 22Rv1 cells xenografted in NSG mouse tumor model assessed as reduction in tumor volume at 25 mg/kg, ip treated for 26 days relative to control; type: functional; conditions: 22Rv1, 624 h, time 26 day
[29] = Toxicity in NSG mouse xenografted with human 22Rv1 cells assessed as body weight loss at 25 to 50 mg/kg, ip treated for 26 days; type: organism-based, CWR22R; conditions: in vivo, 624 h, dose 25-50 mg/kg, time 26 day

## Cc1ccc(CNC(=O)c2cc(/C=C/C(=O)O)cc(CC(C)c3ccccc3)c2)cc1 (centres undefined)
Homo sapiens
  Ratio IC50: 177

## CC(C)=CCOc1cc(/C=C/C(=O)O)cc(C(=O)NCc2ccc(C)cc2)c1
Homo sapiens
  Ratio IC50: 187

## C/C=C/Cc1cc(/C=C/C(=O)O)cc(C(=O)NCc2ccc(C)cc2)c1
[1]
  IC50: > 100 µM
Homo sapiens
  Ratio IC50: 354

## Cc1ccc(CNC(=O)c2cc(/C=C/C(=O)O)cc(-c3ccc(CN4CCOCC4)c(F)c3)c2)cc1
Homo sapiens
  Ratio IC50: 16

## Cc1ccc(CNC(=O)c2cc(/C=C/C(=O)O)cc(-c3ccc4ccccc4c3)c2)cc1
Homo sapiens
  Ratio IC50: 140

## Cc1ccc(CNC(=O)c2cc(/C=C/C(=O)O)cc(-c3ccc4c(c3)OCCO4)c2)cc1
[1]
  IC50: > 100 µM
Homo sapiens
  Ratio IC50: 200

## Cc1ccc(CNC(=O)c2cc(/C=C/C(=O)O)cc(-c3cccc(F)c3)c2)cc1
[1]
  IC50: > 100 µM
Homo sapiens
  Ratio IC50: 960

## Cc1ccc(CNC(=O)c2cc(/C=C/C(=O)O)cc(-c3ccc4nccnc4c3)c2)cc1
Homo sapiens
  Ratio IC50: 133

## Cc1ccc(CNC(=O)c2cc(/C=C/C(=O)O)cc(-c3ccccc3F)c2)cc1
[1]
  IC50: > 100 µM
Homo sapiens
  Ratio IC50: > 1430
[2]
  IC50: > 100 µM

## Cc1ccc(CNC(=O)c2cc(C#Cc3ccccc3)cc(/C=C/C(=O)O)c2)cc1
Homo sapiens
  Ratio IC50: 61

## Cc1ccc(CNC(=O)c2cc(C#CC3CC3)cc(/C=C/C(=O)O)c2)cc1
Homo sapiens
  Ratio IC50: 74

## Cc1ccc(CNC(=O)c2cc(/C=C/C(=O)O)cc(-c3ccc4c(c3)OCO4)c2)cc1
[1]
  IC50: > 100 µM

## Cc1ccc(CNC(=O)c2cc(/C=C/C(=O)O)cc(-c3ccc(-c4ccccc4)cc3)c2)cc1
Homo sapiens
  Ratio IC50: 580

## Cc1ccc(CNC(=O)c2cc(/C=C/C(=O)O)cc(-c3ccc(Cl)cc3)c2)cc1
[1]
  IC50: > 100 µM
Homo sapiens
  Ratio IC50: 333

## Cc1ccc(CNC(=O)c2cc(/C=C/C(=O)O)cc(-c3ccc(-n4c5ccccc5c5ccccc54)cc3)c2)cc1
Homo sapiens
  Ratio IC50: 221

## CC(C)=CCc1cc(/C=C/C#N)cc(C(=O)NCc2ccc(C)cc2)c1
[3]
  IC50: 2.7 µM

## CC[C@@H](NC(=O)c1cc(/C=C/C(=O)O)cc(-c2ccc(C(C)C)cc2)c1)c1ccccc1
Homo sapiens
  Ratio IC50: 51

## Cc1ccc(CNC(=O)c2cc(/C=C/C(=O)O)cc(-c3ccc4cccnc4c3)c2)cc1
Homo sapiens
  Ratio IC50: 109

## Cc1ccc(CNC(=O)c2cc(/C=C/C(=O)O)cc(-c3ccc(Oc4ccccc4)cc3)c2)cc1
Homo sapiens
  Ratio IC50: 51

## Cc1ccc(CNC(=O)c2cc(/C=C/C(=O)O)cc(-c3ccc(C)cc3)c2)cc1
Homo sapiens
  Ratio IC50: 160

## Cc1ccc(CNC(=O)c2cc(/C=C/C(=O)O)cc(-c3ccc4ncnn4c3)c2)cc1
[1]
  IC50: > 100 µM
[4]
  inhibition: 8%
Homo sapiens
  Ratio IC50: 1220
[5]
  Stability: Stable
[6]
  %AUCextra: 28.8%
[7]
  t1/2: 864 min
[8]
  AUCt: 367.6 ng·h/mL
[9]
  AUC: 515.1 ng·h/mL
[10]
  Vz/F: 405 L/kg
[11]
  Tmax: 6 min
[12]
  Stability: Stable
[13]
  CL/F: 323 mL/min/kg
[14]
  Cmax: 174.8 ng/mL

## CN(CCC(=O)O)C(=O)c1ccc2c(c1)CC[C@@H]1[C@@H]2CC[C@]2(C)C(c3cncc(F)c3)=CC[C@@H]12
[15]
  IC50: 0.0018 µM

## COC(=O)/C=C/c1cc(C(=O)NCc2ccc(C)cc2)cc(-c2ccc3ncnn3c2)c1
[5]
  Stability: Stable
[8]
  AUCt: 36.416 ng·h/mL
[16]
  Drug metabolism: Metabolite_Detected
[17]
  AUCt: 6382.8 ng·h/mL
[18]
  metabolised: 25%
[19]
  Drug metabolism: Metabolite_Detected
[20]
  AUC: 6550.1 ng·h/mL
[11]
  Tmax: 19 min
[21]
  Stability: Unstable
[22]
  metabolised: 25%
[23]
  Tmax: 12 min
CWR22R [24]
  inhibition in vivo at 50 mg/kg: 45%
[12]
  Stability: Stable
[25]
  Drug metabolism: Metabolite_Detected
[14]
  Cmax: 92.796 ng/mL
[26]
  Cmax: 11599.4 ng/mL
[27]
  t1/2: 534 min
CWR22R [28]
  inhibition in vivo at 25 mg/kg: 30%
[29]
  Activity: Non-Toxic

## Cc1ccc(CNC(=O)c2cc(/C=C/C#N)cc(-c3ccc(Oc4ccccc4)cc3)c2)cc1
[3]
  IC50: 1.4 µM

## Cc1ccc(CNC(=O)c2cc(/C=C/C(=O)O)cc(-c3ccccc3)c2)cc1
[1]
  IC50: > 100 µM
Homo sapiens
  Ratio IC50: > 2500
[2]
  IC50: > 100 µM

## C/C=C\Cc1cc(/C=C/C(=O)O)cc(C(=O)NCc2ccc(C)cc2)c1
Homo sapiens
  Ratio IC50: 200

## Cc1ccc(CNC(=O)c2cc(Br)cc(/C=C/C(=O)O)c2)cc1
[1]
  IC50: > 100 µM
Homo sapiens
  Ratio IC50: > 333
[2]
  IC50: > 100 µM

## Cc1ccc(CNC(=O)c2cc(/C=C/C(=O)O)cc(-c3ccc(F)cc3)c2)cc1
[1]
  IC50: > 100 µM
Homo sapiens
  Ratio IC50: 600
